Experimental findings from patent US6841385B2, “Transcription factor E2F DNA-binding domain inhibitor peptides and their use” (Topotarget UK Limited, priority 1999, dated 2005) are described below.

Bridge positions count the residues as written; N and C are the ends. Square brackets hold non-standard residues; d marks the D form. Ends that are not written are not given here. I, II: the chains in the order shown. βAla = NCCC(=O)O

The subject of experiment [1] is HL60 cells. The experiment is described as follows: Growth of HL60 cells treated with peptide. The class given is cell-based. The method, then: (§1) HeLa cells were grown in Dulbecco's Modified Eagle's Medium (DMEM) supplemented with fetal calf serum (FCS) and HL60 cells in RPMI 1640 supplemented with 10% FCS. Cells were treated with peptides in culture medium and incubated overnight before harvesting.
(§2) HeLa, 3T3, W138 cells were treated with varying concentration of MAP-4-SEQ ID NO:2-TAT and a control peptide MAP-4-SEQ ID NO:39-TAT wherein SEQ ID NO:39 is SEQ ID NO:2 but containing 2 alanine substitutions at positions 1 and 4, i.e. AVRAHF (SEQ ID NO:39) DNA replication was analysed by BrdU incorporation after 24 hours.
(§3) Effects became visible after 5-24 hours defending on the concentration of the peptide.

Experiment [2] concerns HL60 cells. The experiment is described as follows: Nuclease-laddering assay (DNA laddering) in HL60 cells. The class given is cell-based. On the procedure: Treated cells were collected, washed with PBS, resuspended in lysis buffer (50 mM Tris pH 7.9, 100 mM EDTA, pH 8, 100 mM NaCl, 1% SDS) and 500 μg/ml proteinase K and incubated at 55° C. for 18 h. Cells were then incubated with […] for 1 hour at 37° C., genomic DNA was purified and examined by agarose gel electrophoresis.
as §3

In experiment [3] the test system is C33A (cervical carcinoma). The experiment is described as follows: BrDU proliferation assay, C33A cells. The settings on record: 24 hrs, dose-dependent. The class given is cell-based. On the procedure:
(§4) Four tumor cell lines U2OS (osteosarcoma), C33A (cervical carcinoma), HeLa (cervical carcinoma) and E2F4/ras (derived from primary rat embryo fibroblasts) were treated with the branched peptide MAP-4-SEQ ID NO:2-TAT or mutant control peptide MAP-4-SEQ ID NO:39-TAT for 24 hrs. Cell proliferation was measured using the BrDU proliferation assay from Boehringer Mannheim (Cat No. 1 647 229).

Another experiment has as its system CycA promoter. The experiment is described as follows: Transcription from the CycA promoter, HeLa cells transiently transfected with CycA-Luciferase construct. The class given is cell-based. From the text:
(§5) This finding is in agreement with the anti-repressor function of E2F in the CycA promoter, (Liu et al, Oncogene (1998), 16, 2957-2963).

In a further experiment the test system is U2OS (osteosarcoma). The experiment is described as follows: BrDU proliferation assay, U2OS cells. The settings on record: 24 hrs, dose-dependent. The class given is cell-based. The method, then: as §4
Another experiment deals with HeLa cells. Description: BrdU incorporation cell proliferation assay, HeLa cells. The class given is cell-based. The settings on record: 24 hrs, dose-dependent. The method, then: as §1
The peptides were tested in further experiments for their effect on cell cycle progression and cell viability. For this purpose, the peptides were conjugated at their C-terminus to a cell penetrating HIV-Tat derived peptide (aa 48-60) (Fawell et al. (1994) Proc. Natl. Acad. Sci. USA 91, 664-668).
as §2, §4

The test system of experiment [4] is E2F4/ras (derived from primary rat embryo fibroblasts). Description: BrDU proliferation assay, E2F4/ras cells. The class given is cell-based. To be noted: 24 hrs, dose-dependent. The method, then: as §4
Experiment [5] deals with HL60 cells. Description: Apoptosis, staining of HL60 cells with Heochst 33342 propidium iodide. The class given is cell-based. On the procedure: as §3
The next experiment deals with SV-40 promoter. Description: Transcription from the SV-40 promoter (control), HeLa cells. The class given is cell-based.
Text: as §5

Experiment [6] addresses T1, recombinant E2F1 N1-His (64-301) with DP1 N2-GST (84-249) (human, UniProt Q01094 64-301; Q14186 84-249).
T1 construct: range 64-301;range 84-249; Both proteins were incubated together at 10 ug/ml in the band shift assay with a 32P-labelled B-myb E2F-site probe; also called recombinant E2F1 and DP1; not shown: His tag from vector pET28b; GST fusion partner
Description: band shift, recombinant E2F1 and DP1, displacement of 32P B-myb E2F-site probe.

In experiment [7] the target is T1, recombinant E2F1 N1-His (64-301) with …. The experiment is described as follows: deletion analysis; inhibition of E2F DNA binding (band shift).
Description: (§6) Probes were labelled by filling-in 5' overhanging ends of 4–7 bases. Samples were run on 4% non denaturing polyacrylamide gel in 0.5% TBE at 4° C. Gels were exposed to X-ray films. […] The samples were then incubated for 10 minutes at 30° C. and cooled on ice. ^32P-labelled probe was added, the reaction mixtures were incubated for another 10 minutes at 30° C. and then cooled on ice.
The target in experiment [8] is E2F5 overexpressed in stable transfected 3T3 cells (nuclear extract) (UniProt Q15329 1-346, limits assumed). Description: band shift, extract of 3T3 cells overexpressing E2F5; inhibition of DNA binding.
Description: as §6
For experiment [9], the target named is E2F in nuclear extracts from F9 embryonal carcinoma cells. The experiment is described as follows: band shift with F9 nuclear extract; inhibition of E2F DNA binding.
Experiment [10] concerns the target E2F4 overexpressed in stable transfected 3T3 cells (nuclear extract) (UniProt Q16254 2-413, limits assumed). Description: band shift, extract of 3T3 cells overexpressing E2F4; inhibition of DNA binding.
Description: as §6
Experiment [11] has as its target E2F3 overexpressed in stable transfected 3T3 cells (nuclear extract) (UniProt O00716 1-465, limits assumed). The experiment is described as follows: band shift, extract of 3T3 cells overexpressing E2F3; inhibition of DNA binding.
Description: as §6
Experiment [12] deals with T1, recombinant E2F1 N1-His (64-301) with …. Description: band shift, recombinant E2F, inhibition of DNA binding.
Description: Samples were run on 4% non denaturing polyacrylamide gel in 0.5% TBE at 4° C. Gels were exposed to X-ray films. […] The samples were then incubated for 10 minutes at 30° C. and cooled on ice. ^32P-labelled probe was added, the reaction mixtures were incubated for another 10 minutes at 30° C. and then cooled on ice.
The inhibitory potential of the peptides on E2F function was analysed in band shift assays with recombinant E2F1 and DP1.
In experiment [13] the target is E2F2 overexpressed in stable transfected 3T3 cells (nuclear extract) (UniProt Q14209 1-437, limits assumed). The experiment is described as follows: band shift, extract of 3T3 cells overexpressing E2F2; inhibition of DNA binding.
Description: as §6
Experiment [14] deals with E2F in HeLa cells (nuclear extracts; endogenous E2F in transfected HeLa cells). The experiment is described as follows: band shift with HeLa nuclear extract; inhibition of E2F DNA binding.
For experiment [15], the target named is E2F1 overexpressed in stable transfected 3T3 cells (nuclear extract) (UniProt Q01094 1-437, limits assumed). The experiment is described as follows: band shift, extract of 3T3 cells overexpressing E2F1; inhibition of DNA binding.
E2F1 overexpressed in stable transfected 3T3 cells (nuclear extract), sequence (Q01094 whole entry): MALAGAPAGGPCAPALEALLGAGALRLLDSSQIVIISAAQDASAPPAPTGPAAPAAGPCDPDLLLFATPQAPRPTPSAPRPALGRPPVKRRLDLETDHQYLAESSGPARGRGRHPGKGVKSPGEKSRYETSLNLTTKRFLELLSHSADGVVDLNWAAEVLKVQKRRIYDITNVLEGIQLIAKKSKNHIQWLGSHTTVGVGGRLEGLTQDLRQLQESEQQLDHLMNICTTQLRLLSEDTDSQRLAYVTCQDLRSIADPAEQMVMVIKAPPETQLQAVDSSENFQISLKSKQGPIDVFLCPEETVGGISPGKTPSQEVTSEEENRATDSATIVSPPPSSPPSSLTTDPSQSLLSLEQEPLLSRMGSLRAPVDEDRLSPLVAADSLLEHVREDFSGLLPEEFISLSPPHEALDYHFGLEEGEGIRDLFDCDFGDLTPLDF
Description: as §6

T1 sequence (Q01094 64-301, chain 1 of 2): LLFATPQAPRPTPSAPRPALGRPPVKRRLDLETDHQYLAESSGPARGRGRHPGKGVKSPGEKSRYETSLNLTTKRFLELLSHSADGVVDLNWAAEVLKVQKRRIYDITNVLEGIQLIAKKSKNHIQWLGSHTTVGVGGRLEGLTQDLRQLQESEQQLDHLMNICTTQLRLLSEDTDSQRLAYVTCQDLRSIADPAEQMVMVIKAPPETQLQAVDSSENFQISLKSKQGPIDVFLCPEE
T1 sequence (Q14186 84-249, chain 2 of 2): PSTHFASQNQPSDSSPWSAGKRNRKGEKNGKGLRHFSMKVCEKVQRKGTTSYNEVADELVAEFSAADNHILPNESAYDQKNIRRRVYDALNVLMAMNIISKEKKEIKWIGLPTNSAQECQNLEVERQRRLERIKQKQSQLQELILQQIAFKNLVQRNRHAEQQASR
E2F4 overexpressed in stable transfected 3T3 cells (nuclear extract), sequence (Q16254 2-413 limits assumed): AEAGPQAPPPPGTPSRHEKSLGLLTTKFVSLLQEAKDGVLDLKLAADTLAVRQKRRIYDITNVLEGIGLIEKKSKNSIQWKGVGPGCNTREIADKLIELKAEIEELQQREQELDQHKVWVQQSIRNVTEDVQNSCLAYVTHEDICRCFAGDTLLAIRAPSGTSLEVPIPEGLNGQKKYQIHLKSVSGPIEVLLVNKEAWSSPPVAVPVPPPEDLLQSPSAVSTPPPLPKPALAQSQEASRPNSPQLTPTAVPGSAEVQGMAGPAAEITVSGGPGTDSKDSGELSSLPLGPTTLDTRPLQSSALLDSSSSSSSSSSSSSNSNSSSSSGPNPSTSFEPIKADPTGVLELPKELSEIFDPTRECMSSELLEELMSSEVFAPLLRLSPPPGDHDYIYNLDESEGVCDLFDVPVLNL
E2F5 overexpressed in stable transfected 3T3 cells (nuclear extract), sequence (Q15329 whole entry): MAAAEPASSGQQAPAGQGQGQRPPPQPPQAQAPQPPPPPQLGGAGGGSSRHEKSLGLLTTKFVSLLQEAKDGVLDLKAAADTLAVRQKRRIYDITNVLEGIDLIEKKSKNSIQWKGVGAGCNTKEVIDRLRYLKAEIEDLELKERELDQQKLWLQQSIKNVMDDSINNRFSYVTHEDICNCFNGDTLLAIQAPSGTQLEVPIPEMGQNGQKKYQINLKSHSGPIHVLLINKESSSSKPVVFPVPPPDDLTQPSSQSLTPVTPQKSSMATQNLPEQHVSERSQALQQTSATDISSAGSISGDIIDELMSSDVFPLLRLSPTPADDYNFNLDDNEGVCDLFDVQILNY
E2F2 overexpressed in stable transfected 3T3 cells (nuclear extract), sequence (Q14209 whole entry): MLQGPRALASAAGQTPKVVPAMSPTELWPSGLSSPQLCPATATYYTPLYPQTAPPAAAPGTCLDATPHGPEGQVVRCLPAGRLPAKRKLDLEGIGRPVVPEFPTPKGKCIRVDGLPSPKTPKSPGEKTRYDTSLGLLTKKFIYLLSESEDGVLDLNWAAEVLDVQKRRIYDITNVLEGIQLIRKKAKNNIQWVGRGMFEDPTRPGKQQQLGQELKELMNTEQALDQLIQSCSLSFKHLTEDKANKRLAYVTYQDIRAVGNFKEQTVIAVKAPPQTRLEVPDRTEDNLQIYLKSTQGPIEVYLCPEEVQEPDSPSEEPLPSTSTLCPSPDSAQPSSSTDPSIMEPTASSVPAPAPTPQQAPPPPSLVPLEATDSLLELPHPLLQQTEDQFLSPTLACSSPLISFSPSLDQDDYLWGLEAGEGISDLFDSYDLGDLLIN
E2F3 overexpressed in stable transfected 3T3 cells (nuclear extract), sequence (O00716 whole entry): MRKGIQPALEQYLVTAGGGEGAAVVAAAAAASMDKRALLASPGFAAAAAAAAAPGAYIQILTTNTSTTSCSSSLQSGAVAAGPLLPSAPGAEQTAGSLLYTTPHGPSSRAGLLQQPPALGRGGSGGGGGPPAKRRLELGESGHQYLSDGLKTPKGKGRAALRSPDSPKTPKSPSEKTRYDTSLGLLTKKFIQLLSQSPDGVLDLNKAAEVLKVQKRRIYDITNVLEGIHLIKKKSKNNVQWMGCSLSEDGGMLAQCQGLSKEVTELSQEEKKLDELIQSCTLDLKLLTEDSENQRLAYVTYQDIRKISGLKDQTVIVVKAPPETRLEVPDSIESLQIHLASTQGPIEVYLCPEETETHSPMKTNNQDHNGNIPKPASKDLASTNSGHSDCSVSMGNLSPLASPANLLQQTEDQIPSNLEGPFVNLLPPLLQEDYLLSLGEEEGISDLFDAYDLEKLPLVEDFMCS

“I: WVRWHFGRKKRRQRRRPPQKK[βAla] / II: WVRWHFGRKKRRQRRRPPQK / III: WVRWHFGRKKRRQRRRPPQ / IV: WVRWHFGRKKRRQRRRPPQ (amide I:20-IV:C, I:21-II:C, II:20-III:C) [MAP-4-SEQ ID NO:2-TAT]”: the “inhibition of cell proliferation / cell growth” value with HL60 cells [1] (HL60 cells, concentrations between 1-5 μM) is given as “Inhibition of cell proliferation”. For the same molecule, in the experiment on HL60 cells [1] (depending on the concentration of the peptide), the “time after which effects became visible” value was 5 to 24 h. In addition, in the experiment with HL60 cells [2], the DNA laddering result is given as “internucleosomal DNA cleavage”. The inhibition of proliferation entry (in experiment [3]; with U2OS (osteosarcoma); in the experiment on HeLa cells; in experiment [4]) was “inhibited proliferation” throughout. The “effect on transcription from CycA-Luciferase construct” value with CycA promoter is listed as “Inhibition of transcription”. Also, the “hallmarks of apoptosis after staining” value in the experiment with HL60 cells [5] was “chromatin condensation and nuclear fragmentation”. Further, the “effect on the SV-40 promoter” value in the experiment on SV-40 promoter is on record as “No effect”.

B1: peptide SEQ ID NO:4 (IWLSGLSRGVWVSFP) (peptide)
peptide: IWLSGLSRGVWVSFP
notes: Synthetic peptide in the band shift assays
On to B1, for which, in [6], the binding result is “binds”.

B2: SEQ5-7 (3-13) (RILTFRSGSWY) (peptide)
peptide: RILTFRSGSWY
notes: also called core-region consisting of amino acids 3-13
Turning to B2, the “inhibitory activity relative to SEQ ID NO:5” value in experiment [7] was approximately 50%.

B3: MAP4-SEQ ID NO:2 (branched molecule consisting of 4 copies of SEQ ID NO:2 linked by MAP, multiple antigen peptide) (peptide)
peptide: WVRWHF
modifications: also: tetravalent MAP core: 4 copies joined by C-terminus to Lys2-Lys-X core
notes: Branched tetravalent peptide on a lysine MAP core
B3: the IC50 in [8], in [10], in experiment [11], in [13] and in [15] was approximately 30 µM in each case. For the same molecule, the concentration at which inhibition of E2F-DNA binding was found in experiment [9] and in experiment [14] was 10 to 30 µM each time. In addition, in [12], the “fold lower IC50 (against the unbranched peptides)” value is approximately 100 fold.

Broadly, the IC50 is the concentration that inhibits the measured activity by half.
